In PMC12494831, “Discovery of new pyridine 3-carboxylic acid-based pharmacophores as dual anti-inflammatory and anti-hyperglycemic agents” (Scientific Reports, 2025):

Tests used:
[1] = DPPH radical scavenging (517 nm); details: for IC50: read-out: DPPH IC50±SD
Experimental: (§1) The experimental method principle relies on the degradation of the purple color of the DPPH radical and the blue color reduction of the ABTS cation radical. This is due to consuming the electron or hydrogen radical from the antioxidant (A-H). Both assays were measured at 517 nm and 734 nm, respectively. The distinction of color changes illustrates the potential scavenging activity of the inhibitor molecules in terms of hydrogen-donating proficiency. From this, we can conclude the anti-oxidant efficacy.
Methanolic DPPH solution (0.15 mM) was prepared, and 1.0 mL of DPPH solution was mixed with 3.0 mL of synthesized molecules at different concentrations (20 µM to 100 µM). The mixture was constantly swirled and stored RT for 30 min, followed by absorbance measurement at 517 nm.

[2] = test system: RAW macrophage cells (RAW 264.7); assay: MTT cell viability assay; assay type: cell-based; details: for MTT assay Average OD: control average OD 0.924; for Toxicity, outcome of the MTT cell viability assay (in words): RAW macrophage cells
Experimental: (§2) The toxicity of the molecule was investigated by the MTT cell viability assay employing RAW macrophage cells. For this study, two lead compounds, 2b and 2e, were screened based on the in vitro results. […] (The OD values in Tables S6 and S7)
(§3) The MTT ((3-(4,5-Dimethylthiazol-2-yl)-2,5-Diphenyltetrazolium Bromide)) assay was employed to determine viability for the synthesized potent compounds 2b and 2e; the cell viability results portray the compounds’ cytotoxicity. The assay was conducted on RAW macrophage cells (RAW 264.7) with various dilutions of 2b and 2e (10, 20, 30, 40, and 50 µM). The results were confirmed with a control.

MTT cell viability assay = assay type: cell-based; details: mouse, RAW 264.7 macrophage cells, control 100
Experimental: as §2, §3

human RBC = assay: Anti-inflammatory activity: hypotonic solution-induced human RBC hemolysis (560 nm); assay type: cell-based; details: for IC50: induced human RBC hemolysis, read-out: Inflammatory IC50±SD
Experimental: All synthesized compounds are validated in human RBC (blood sample); the blood sample was collected from a healthy volunteer in an EDTA tube. The EDTA tube further proceeded with centrifugation at 3000 rpm for 30 min. A supernatant (which contains plasma and leucocytes) solution was isolated, and the obtained RBC (red blood cells) was further treated with Alsever’s reagent. Alsever’s reagent was prepared as follows: sodium citrate (0.8 g, 2.6 mmol), dextrose (2 g, 11.0 mmol), citric acid (0.050 g, […]), and sodium chloride (0.42 g, 7.0 mmol) were solubilized in 100 mL of distilled water. The above mixture was centrifuged for 30 min at 3000 rpm. Then, colloidal blood cells were separated, carefully transferred, and washed with 0.85% of the isosaline solution; this process continued until a clear solution appeared. Employing coagulated RBC and generated human erythrocyte hemolysis, the anti-inflammatory activity and potential of the synthesized entities were evaluated. The tested compounds are prepared at different concentrations for the inhibition activity of inflammation, along with 100 µL of a purified RBC sample utilized. All characterized samples were followed by adding 5.0 mL of trisodium phosphate (10 mM) and 5.0 mL of sodium chloride (5.0 mM) buffer solutions. After the addition of the above mixtures, the test samples are incubated for 15 min at room temperature with RBC and hypotonic mixtures. After incubation, the mixture was centrifuged at 3000 rpm for 15 min. The final supernatant liquid solution was measured at 560 nm using a UV-visible spectrophotometer.3 [drawing 3]

α-amylase (EC.3.2.1.1) = target: T1, α-amylase (EC.3.2.1.1) (Homo sapiens, UniProt P04746); assay: In vitro α-amylase inhibition (starch/DNS, 540 nm); assay type: biochemical; details: for IC50: test concentrations 2-10 µg, read-out: α-Amylase IC50±SD (converted)
T1 sequence (P04746 16-511): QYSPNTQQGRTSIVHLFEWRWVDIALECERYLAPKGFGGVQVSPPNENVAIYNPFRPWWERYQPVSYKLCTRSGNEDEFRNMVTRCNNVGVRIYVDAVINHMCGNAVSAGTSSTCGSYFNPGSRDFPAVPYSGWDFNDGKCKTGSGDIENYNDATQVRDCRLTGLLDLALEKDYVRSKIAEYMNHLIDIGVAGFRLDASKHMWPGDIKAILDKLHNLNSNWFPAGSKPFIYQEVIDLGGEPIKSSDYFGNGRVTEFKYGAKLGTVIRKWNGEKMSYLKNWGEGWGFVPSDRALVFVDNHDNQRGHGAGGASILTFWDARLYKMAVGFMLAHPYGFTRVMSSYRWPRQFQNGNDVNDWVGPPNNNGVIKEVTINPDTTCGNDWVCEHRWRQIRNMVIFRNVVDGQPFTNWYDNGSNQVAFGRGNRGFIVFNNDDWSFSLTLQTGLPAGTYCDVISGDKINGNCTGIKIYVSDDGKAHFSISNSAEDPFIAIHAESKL
Experimental: α-Amylase enzyme and other chemical reagents are used for enzyme inhibitory activity. The characterized compounds are diluted in an analytical grad solvent (DMSO) system at 1 mg/mL solution concentration. The activity reaction of the synthesized analogues on the enzyme was treated at final concentrations of 2 to 10 µg. In the interaction between enzyme and compounds, 10 min incubation was maintained before the inhibitory activity started. The enzyme-receptor inhibition efficiency was calculated and compared with the positive control.
Sodium phosphate buffer 0.2 mM (pH 6.9 with 6 × 10^− 4 M NaCl) in 500 µL enzyme solution (0.5 mg/mL) was taken and incubated with test samples (2–10 µg/mL) at room temperature for 10 min. A starch (1%) solution of 500 µL with phosphate buffer was added to all test inhibitor samples; further, the tubes were incubated for 10 min at 28 °C. The reaction test tubes were incubated for another 5 min in the water bath (100 °C) after the addition of the color reagent dinitro salicylic acid and cooled at room temperature until reached. Finally, 10 mL of distilled water was mixed with each test tube, and the colored mixture was measured at a fixed wavelength of 540 nm. The absorbance without sample solution (blank) and control (buffer and standard drug sample) was measured at 540 nm. The α-amylase inhibition efficiency was validated using the following equation:2 [drawing 2]

[3] = ABTS cation radical scavenging (734 nm); details: for IC50: read-out: ABTS IC50±SD
Experimental: as §1
In brief, 7.0 mM ABTS in H2O and 2.5 mM potassium persulfate (1:1) were shaken well to generate ABTS cation radicals and kept in the dark at RT for 15–20 h before it is used for the experiment. After, the radical was mixed with the synthesized molecules at different concentrations (20 µM to 100 µM). The resultant solution was measured for absorbance at 734 nm. Ascorbic acid is the positive control for this experiment.1 [drawing 1]

COC(=O)/C=C/c1ccc(OC(=O)c2cccnc2)c(OC)c1 [Compound 2b, 2-Methoxy-4-(3-methoxy-3-oxoprop-1-en-1-yl) phenyl nicotinate]
DPPH Inhibition % ([1]; 20 µM): 66.2%
DPPH Inhibition % ([1]; 40 µM): 86.32%
DPPH Inhibition % ([1]; 60 µM): 87.6%
DPPH Inhibition % ([1]; 80 µM): 88%
DPPH Inhibition % ([1]; 100 µM): 88.4%
IC50 [1]: 15.63 ± 0.13 µM
MTT assay Triplicate values OD1 ([2]; 10 µM): 0.790
MTT assay Triplicate values OD2 ([2]; 10 µM): 0.792
MTT assay Triplicate values OD3 ([2]; 10 µM): 0.785
MTT assay Average OD ([2]; 10 µM): 0.789
MTT assay Triplicate values OD1 ([2]; 20 µM): 0.719
MTT assay Triplicate values OD2 ([2]; 20 µM): 0.712
MTT assay Triplicate values OD3 ([2]; 20 µM): 0.711
MTT assay Average OD ([2]; 20 µM): 0.714
MTT assay Triplicate values OD1 ([2]; 30 µM): 0.634
MTT assay Triplicate values OD2 ([2]; 30 µM): 0.629
MTT assay Triplicate values OD3 ([2]; 30 µM): 0.636
MTT assay Average OD ([2]; 30 µM): 0.633
MTT assay Triplicate values OD1 ([2]; 40 µM): 0.542
MTT assay Triplicate values OD2 ([2]; 40 µM): 0.541
MTT assay Triplicate values OD3 ([2]; 40 µM): 0.546
MTT assay Average OD ([2]; 40 µM): 0.543
MTT assay Triplicate values OD1 ([2]; 50 µM): 0.418
MTT assay Triplicate values OD2 ([2]; 50 µM): 0.416
MTT assay Triplicate values OD3 ([2]; 50 µM): 0.423
MTT assay Average OD ([2]; 50 µM): 0.419
Toxicity, outcome of the MTT cell viability assay (in words) [2]: viable for the cell line
viability at 10 µM (MTT cell viability assay): 85.4%
viability at 20 µM (MTT cell viability assay): 77.4%
viability at 30 µM (MTT cell viability assay): 68.5%
viability at 40 µM (MTT cell viability assay): 58.8%
viability at 50 µM (MTT cell viability assay): 45.3%
inhibition at 20 µM (human RBC): 60%
inhibition at 40 µM (human RBC): 69.9%
inhibition at 60 µM (human RBC): 71%
inhibition at 80 µM (human RBC): 76%
inhibition at 100 µM (human RBC): 85.8%
IC50 (human RBC): 18.41 ± 0.13 µM
α-Amylase Inhibition % (α-amylase (EC.3.2.1.1); 2 µg): 80.52%
α-Amylase Inhibition % (α-amylase (EC.3.2.1.1); 4 µg): 80.38%
α-Amylase Inhibition % (α-amylase (EC.3.2.1.1); 6 µg): 77.01%
α-Amylase Inhibition % (α-amylase (EC.3.2.1.1); 8 µg): 69.1%
α-Amylase Inhibition % (α-amylase (EC.3.2.1.1); 10 µg): 54.9%
IC50 (α-amylase (EC.3.2.1.1)): 4.37 µM
ABTS Inhibition % ([3]; 20 µM): 59.6%
ABTS Inhibition % ([3]; 40 µM): 60.8%
ABTS Inhibition % ([3]; 60 µM): 60.9%
ABTS Inhibition % ([3]; 80 µM): 61%
ABTS Inhibition % ([3]; 100 µM): 61.4%
IC50 [3]: 19.9 ± 0.25 µM

O=C(NCc1ccc2c(c1)OCO2)c1cccnc1 [Compound 2e, N-(Benzo[1,3]dioxol-5-ylmethyl)nicotinamide]
DPPH Inhibition % ([1]; 20 µM): 29.2%
DPPH Inhibition % ([1]; 40 µM): 47.1%
DPPH Inhibition % ([1]; 60 µM): 49.2%
DPPH Inhibition % ([1]; 80 µM): 55.8%
DPPH Inhibition % ([1]; 100 µM): 59%
IC50 [1]: 52.09 ± 0.15 µM
Toxicity, outcome of the MTT cell viability assay (in words) [2]: viable for the cell line
viability at 10 µM (MTT cell viability assay): 89.1%
viability at 20 µM (MTT cell viability assay): 81.7%
viability at 30 µM (MTT cell viability assay): 74.8%
viability at 40 µM (MTT cell viability assay): 65.1%
viability at 50 µM (MTT cell viability assay): 56.4%
inhibition at 20 µM (human RBC): 33.6%
inhibition at 40 µM (human RBC): 42.8%
inhibition at 60 µM (human RBC): 43%
inhibition at 80 µM (human RBC): 48.2%
inhibition at 100 µM (human RBC): 60%
IC50 (human RBC): 14.1 ± 0.15 µM
α-Amylase Inhibition % (α-amylase (EC.3.2.1.1); 2 µg): 86.09%
α-Amylase Inhibition % (α-amylase (EC.3.2.1.1); 4 µg): 77.3%
α-Amylase Inhibition % (α-amylase (EC.3.2.1.1); 6 µg): 74.08%
α-Amylase Inhibition % (α-amylase (EC.3.2.1.1); 8 µg): 72.76%
α-Amylase Inhibition % (α-amylase (EC.3.2.1.1); 10 µg): 56.22%
IC50 (α-amylase (EC.3.2.1.1)): 5.17 µM
ABTS Inhibition % ([3]; 20 µM): 23.4%
ABTS Inhibition % ([3]; 40 µM): 27.9%
ABTS Inhibition % ([3]; 60 µM): 29.3%
ABTS Inhibition % ([3]; 80 µM): 35.4%
ABTS Inhibition % ([3]; 100 µM): 43%
IC50 [3]: 45.63 ± 0.19 µM
